Paper PMC7772889, “Integrating biokinetics and in vitro studies to evaluate developmental neurotoxicity induced by chlorpyrifos in human iPSC-derived neural stem cells undergoing differentiation towards neuronal and glial cells” (Reproductive Toxicology (Elmsford, N.y.), 2020)

How the values were obtained:
[1] = cited from earlier work
[2] = tested on: hiPSC-derived NSCs undergoing differentiation towards neurons and astrocytes; experiment: In vitro biokinetics of CPF and metabolites in medium, cells and plastic (HPLC-UV)
Method: The nominal concentration causing 5 % decrease of viability (IC5) was previously identified, extrapolating a dose response curves obtained with six CPF nominal concentrations (0.49, 1.95, 7.81, 31.25, 125, and 500 μM) vs solvent control (0.1 % DMSO) after 14-day treatment by means of resazurin test (CellTiter-Blue® Reagent).
CPF stock solutions were prepared in DMSO and stored in glass at −20 °C until the beginning of each experiment. Freshly prepared treatment solutions were obtained after the dilution of stock solutions in a ratio of […] in serum-free culture medium, keeping DMSO concentration at 0.1 %. Aliquots of the stock and daily treatment solutions (considered as the starting solutions) were stored at −80 °C until HPLC analysis.
Cells (about 21,000 cells/cm^2), seeded on 6 well PDL- and reduced growth factor Matrigel coated plates, were treated during the differentiation process, starting from day 7 of differentiation up to day 21, with treatment/medium refreshed twice a week (Fig. 2). Exposure to CPF of cells or pre-coated wells (without cells) was initiated by adding 2 mL per well of the corresponding treatment solutions or the vehicle (control wells). Four biological replicates were carried out.
A first set of experiments was used to fine tune the experimental conditions, including time points and exposure conditions, taking into account possible metabolism, bioaccumulation and/or physical sequestration processes. All the fractions (i.e., medium, cells, plastic and matrix-bound fractions) were collected, at the first and last day of treatment, at different time points (i.e., 1, 3, 6, 24 h) selected on the basis of the intrinsic features of the compound and the cellular model. At each time point, the medium was transferred into amber glass vials and stored at −80 °C until HPLC analysis. Cells were washed twice with PBS (2 mL/well); to avoid dehydration of the cells, an aliquot of PBS was kept in each well. PBS was then removed, cells were scraped from the wells in 250 μL MeOH, additional 100 μL MeOH were added for washing and all the content was transferred into amber glass vials. The same procedure was applied also to the wells used for measuring matrix-bound material (without cells). Cells were then sonicated until they were fully homogenized (about 15 min). All fractions, including DMSO from control wells and MeOH used to measure possible plastic binding, were stored at −80 °C until HPLC analysis. Four biological replicates were carried out.
All samples from kinetic experiments were analysed using high-performance liquid chromatography (HPLC), as previously described, to quantify CPF and its metabolites. Prior to analysis, one volume of the collected medium samples was mixed with three volumes of MeOH. All the mixtures, including cell and matrix-bound samples, were vortexed for 30 s and then centrifuged (Eppendorf 5417R; 4 °C, 2500 rpm) for 10 min. Preliminary assays were conducted to evaluate CPF and its metabolite recovery after the solvent extraction procedure from each type of sample. […] Plastic-bound fraction was injected as such.
The HPLC system included a PerkinElmer Series 200 analytical pump, a Restek™ Pinnacle ODS Amine C18 column, a PerkinElmer LC 235 Diode Array Detector and the PerkinElmer Totalchrom™ 3.1.2 software for data acquisition and evaluation. For analysing CPF, CPFO and TCP, a gradient elution was applied at a flow rate of 1.0 mL/min, starting at 80:20 % methanol /buffer (Tris /HCl 50 mM EDTA 1 mM pH 7.4) and reaching after 4 min a percentage of 70:30 (v/v), respectively, maintained for 16 min. Then, the gradient returned to the initial concentration before the next sample was injected.

CCOP(=S)(OCC)Oc1nc(Cl)c(Cl)cc1Cl [CPF, Chlorpyrifos]
exposure in new-borns, concentration in blood [1]: up to 4.9 μM | exposure in new-borns, concentration in meconium [1]: 23.6 µM | Intracellular levels of CPF ([2]; first day of treatment, 1 h until 24 h, 21 μM nominal): 2.5–4.7 nmol/well | CPF in the medium as % of the initial CPF amount ([2]; first day of treatment, 24 h): around 41% | CPF in the medium ([2]; first day of treatment, 24 h, 21 μM nominal): 18.0 ± 6.9 nmol/well | Mass balance (% of the applied CPF amount) ([2]; first day of treatment, first three time points (1, 3 and 6 h)): around 95% | Actual concentration in the medium at the beginning of the experiment (treatment solution) ([2]; nominal concentration 21 μM (IC5)): 24.5 ± 5.6 µM | Amount of CPF in the cell compartment, last day compared to first day of treatment ([2]; p < 0.01): doubled | Mass balance ([2]; repeated exposure, within the first 6 h): 110 to 120%
